Assay results as given in patent US20250179059A1 (The Regents of the University of California, priority 2021, published 2025).

Tests used:
[1] = biological target: T1, human BRD4 bromodomain II (Homo sapiens, UniProt O60885); test: Bromodomain binding assay (AlphaScreen), BRD4 BDII; conditions: AlphaScreen assay, Table C2; read-out: BRD4 BDII IC50
T1 construct: human BRD4 bromodomain II [based on Genbank NM_058243, residues 349-460]; host or cells: E. coli
How it was run: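 First, His6-tagged BRD4 bromodomain (BDI residues 44-170 or BDII residues 349-460) is incubated with compound for 30 min at room temperature. Next the biotinylated H4 peptide is added for 30 min, then donor and acceptor beads, with 60 min in the dark before AlphaScreen reading and IC50 fitting.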

[2] = test system: human SKM-1 acute myeloid leukemia cells; test: SKM-1 antiproliferation cell-based assay (ATPlite); conditions: Homo sapiens, SKM-1, 96 h, SKM-1 antiproliferation assay, 4 days, Table C2
How it was run: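 Log-phase cells in RPMI 1640/15% FBS were seeded at 34722 cells/mL and exposed for 4 days to nine-concentration DMSO serial dilutions in triplicate. Viability was read as ATP luminescence (ATPlite 1step), and IC50 values came from variable-slope non-linear regression.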

Row | Structure (SMILES) | IC50 [1] | GI50 [2]
1 | Cn1ccn(-c2ccc(-c3cc(F)cc(-c4cccc(C#CC(C)(C)O)c4)c3O)cc2Cl)c1=O [Example 772, 1-(3-chloro-5′-fluoro-2′-hydroxy-3″-(3-hydroxy-3-methylbut-1-yn-1-yl)-[1,1′:3′,1″-terphenyl]-4-yl)-3-methyl-1H-imidazol-2(3H)-one] | 10 to 100 nM | 300 to 3000 nM
2 | CC(=O)N[C@@]1(C)CCN(c2cc(-c3cc(F)cc(-c4ccc(-n5ccn(C)c5=O)c(Cl)c4)c3O)cc(=O)n2C)C1 [Example 774, (S)-N-(1-(4-(3′-chloro-5-fluoro-2-hydroxy-4′-(3-methyl-2-oxo-2,3-dihydro-1H-imidazol-1-yl)-[1,1′-biphenyl]-3-yl)-1-methyl-6-oxo-1,6-dihydropyridin-2-yl)-3-methylpyrrolidin-3-yl)acetamide] | 1 to 10 nM | 30 to 300 nM
3 | Cn1ccn(-c2ccc(-c3cc(F)cc(-c4ccc(F)c(N5CC[C@@](C)(O)C5)c4)c3O)cc2Cl)c1=O [Example 775, (R)-1-(3-chloro-4″,5′-difluoro-2′-hydroxy-3″-(3-hydroxy-3-methylpyrrolidin-1-yl)-[1,1′:3′,1″-terphenyl]-4-yl)-3-methyl-1H-imidazol-2(3H)-one] | 1 to 10 nM | 30 to 300 nM
4 | Cn1ccn(-c2ccc(-c3cc(F)cc(-c4ccnc(N5CCC(C)(NC(=O)OC(C)(C)C)C5)c4)c3O)cc2Cl)c1=O (centres unmarked) [Example 776, tert-butyl (1-(4-(3′-chloro-5-fluoro-2-hydroxy-4′-(3-methyl-2-oxo-2,3-dihydro-1H-imidazol-1-yl)-[1,1′-biphenyl]-3-yl)pyridin-2-yl)-3-methylpyrrolidin-3-yl)carbamate] | 10 to 100 nM | 30 to 300 nM
5 | Cn1ccn(-c2ccc(-c3cc(F)cc(-c4ccnc(N5CCC(C)(N)CC5)c4)c3O)cc2Cl)c1=O [Example 778] | 1 to 10 nM | 0.3 to 30 nM
6 | Cn1ccn(-c2ccc(-c3cc(F)cc(-c4ccnc(N5CC(C)(O)C6(CC6)C5)c4)c3O)cc2Cl)c1=O (centres unmarked) [Example 779, 1-(3-chloro-5′-fluoro-2′-hydroxy-3′-(2-(7-hydroxy-7-methyl-5-azaspiro[2.4]heptan-5-yl)pyridin-4-yl)-[1,1′-biphenyl]-4-yl)-3-methyl-1H-imidazol-2(3H)-one] | 1 to 10 nM | 0.3 to 30 nM
7 | CC(=O)NC1(C)C2CCC1CN(c1cc(-c3cc(F)cc(-c4ccc(-n5ccn(C)c5=O)c(Cl)c4)c3O)ccn1)C2 (centres unmarked) [Example 780, N-(3-(4-(3′-chloro-5-fluoro-2-hydroxy-4′-(3-methyl-2-oxo-2,3-dihydro-1H-imidazol-1-yl)-[1,1′-biphenyl]-3-yl)pyridin-2-yl)-8-methyl-3-azabicyclo[3.2.1]octan-8-yl)acetamide] | 1 to 10 nM | 30 to 300 nM
8 | Cn1ccn(-c2ccc(-c3cc(F)cc(-c4ccnc(N5C[C@@H](O)[C@H](F)C5)c4)c3O)cc2Cl)c1=O [Example 781, 1-(3-chloro-5′-fluoro-3′-(2-((3R,4R)-3-fluoro-4-hydroxypyrrolidin-1-yl)pyridin-4-yl)-2′-hydroxy-[1,1′-biphenyl]-4-yl)-3-methyl-1H-imidazol-2(3H)-one] | 1 to 10 nM | 30 to 300 nM

Other lines, results leading:

Row | IC50 [1] | GI50 [2] | Structure (SMILES)
9 | 1 to 10 nM | 0.3 to 30 nM | Cn1ccn(-c2ccc(-c3cc(F)cc(-c4cc(N5CC[C@](C)(N)C5)n(C)c(=O)c4)c3O)cc2Cl)c1=O [Example 765, (S)-6-(3-amino-3-methylpyrrolidin-1-yl)-4-(3′-chloro-5-fluoro-2-hydroxy-4′-(3-methyl-2-oxo-2,3-dihydro-1H-imidazol-1-yl)-[1,1′-biphenyl]-3-yl)-1-methylpyridin-2(1H)-one]
10 | 1 to 10 nM | 30 to 300 nM | Cc1ccc(-c2cc(F)cc(-c3ccc(-n4ccn(C)c4=O)c(Cl)c3)c2O)cc1C(N)=O [Example 766]
11 | 0.01 to 1 nM | 0.3 to 30 nM | CC(=O)NC1CN(c2cc(-c3cc(F)cc(-c4ccc(-n5ccn(C)c5=O)c(Cl)c4)c3O)ccn2)CC12CC2 (centres unmarked) [Example 767, N-(5-(4-(3′-chloro-5-fluoro-2-hydroxy-4′-(3-methyl-1-oxo-2,3-dihydro-1H-imidazol-1-yl)-[1,1′-biphenyl]-3-yl)pyridin-2-yl)-5-azaspiro[2.4]heptan-7-yl)acetamide]
12 | 1 to 10 nM | 30 to 300 nM | CC(=O)NC1(C)CN(c2cc(-c3cc(F)cc(-c4ccc(-n5ccn(C)c5=O)c(Cl)c4)c3O)ccn2)C1 [Example 768, N-(1-(4-(3′-chloro-5-fluoro-2-hydroxy-4′-(3-methyl-2-oxo-2,3-dihydro-1H-imidazol-1-yl)-[1,1′-biphenyl]-3-yl)pyridin-2-yl)-3-methylazetidin-3-yl)acetamide]
13 | 1 to 10 nM | 300 to 3000 nM | Cn1ccn(-c2ccc(-c3cc(F)cc(-c4ccnc(N5CCC(C)(C(=O)O)C5)c4)c3O)cc2Cl)c1=O (centres unmarked) [Example 769, 1-(4-(3′-chloro-5-fluoro-2-hydroxy-4′-(3-methyl-2-oxo-2,3-dihydro-1H-imidazol-1-yl)-[1,1′-biphenyl]-3-yl)pyridin-2-yl)-3-methylpyrrolidine-3-carboxylic acid]
14 | 1 to 10 nM | 30 to 300 nM | Cn1ccn(-c2ccc(-c3cc(F)cc(-c4ccnc(N5CC6CC6(O)C5)c4)c3O)cc2Cl)c1=O (centres unmarked) [Example 770, 1-(3-chloro-5′-fluoro-2′-hydroxy-3′-(2-(1-hydroxy-3-azabicylco[3.1.0]hexan-3-yl)pyridin-4-yl)-[1,1′-biphenyl]-4-yl)-3-methyl-1H-imidazol-2(3H)-one]
15 | 1 to 10 nM | 30 to 300 nM | Cn1ccn(-c2ccc(-c3cc(F)cc(-c4cccc(C#CC(C)(C)N)c4)c3O)cc2Cl)c1=O [Example 771, 1-(3″-(3-amino-3-methylbut-1-yn-1-yl)-3-chloro-5′-fluoro-2′-hydroxy-[1,1′:3′,1″-terphenyl]-4-yl)-3-methyl-1H-imidazol-2(3H)-one]
16 | 1 to 10 nM | 30 to 300 nM | Cn1ccn(-c2ccc(-c3cc(F)cc(-c4ccnc(N5CCC(C)(C(N)=O)C5)c4)c3O)cc2Cl)c1=O (centres unmarked) [Example 773, 1-(4-(3′-chloro-5-fluoro-2-hydroxy-4′-(3-methyl-2-oxo-2,3-dihydro-1H-imidazol-1-yl)-[1,1′-biphenyl]-3-yl)pyridin-2-yl)-3-methylpyrrolidine-3-carboxamide]
17 | 0.01 to 1 nM | 0.3 to 30 nM | Cn1ccn(-c2ccc(-c3cc(F)cc(-c4cc(N5CC[C@@](C)(O)C5)n(C)c(=O)c4)c3O)cc2Cl)c1=O [Example 777, (R)-4-(3′-chloro-5-fluoro-2-hydroxy-4′-(3-methyl-2-oxo-2,3-dihydro-1H-imidazol-1-yl)-[1,1′-biphenyl]-3-yl)-6-(3-hydroxy-3-methylpyrrolidin-1-yl)-1-methylpyridin-2(1H)-one]
18 | 0.01 to 1 nM | 30 to 300 nM | CC(=O)NC1(C)CCN(c2cc(-c3cc(F)cc(-c4ccc(-n5ccn(C)c5=O)c(Cl)c4)c3O)ccn2)C1 (centres unmarked) [Example 782, N-(1-(4-(3′-chloro-5-fluoro-2-hydroxy-4′-(3-methyl-2-oxo-2,3-dihydro-1H-imidazol-1-yl)-[1,1′-biphenyl]-3-yl)pyridin-2-yl)-3-methylpyrrolidin-3-yl)acetamide]
19 | 0.01 to 1 nM | 0.3 to 30 nM | Cn1ccn(-c2ccc(-c3cc(F)cc(-c4ccnc(N5CC(C)(C)C(C)(O)C5)c4)c3O)cc2Cl)c1=O (centres unmarked) [Example 783, 1-(3-chloro-5′-fluoro-2′-hydroxy-3′-(2-(3-hydroxy-3,4,4-trimethylpyrrolidin-1-yl)pyridin-4-yl)-[1,1′-biphenyl]-4-yl)-3-methyl-1H-imidazol-2(3H)-one]
